Our source for the MBC and MIC values is ChEMBL document CHEMBL1146892, “Pyrrolidine bis-cyclic guanidines with antimicrobial activity against drug-resistant Gram-positive pathogens identified from a mixture-based combinatorial library” (2006).

Converted amounts (≈) assume the structure as drawn.

Common to all, as to type: functional
For assay [1], the system named is Enterococcus faecalis. In words: Antibacterial activity against vancomycin-resistant Enterococcus faecalis ATCC 51299.
Assay [2] concerns Staphylococcus aureus. Kind of assay: Antibacterial activity against methicillin-resistant Staphylococcus aureus ATCC 33591.
Assay [3] has as its system Escherichia coli. In words: Antibacterial activity against Escherichia coli ATCC 25922.

As usually defined, the MBC is the smallest concentration meeting the test's criterion for killing. The low end stands for more potent killing, the high end for less potent killing. By MIC is commonly meant the lowest concentration found to suppress growth. Low values mean a more susceptible organism, high ones a less susceptible organism. For the molecule `CC(C)Cc1ccc(C(C)CN2C(=N)N([C@@H](CC3CCCCC3)CN3CCCC3CN3C(N)=NC[C@@H]3C)C[C@@H]2CC2CCCCC2)cc1` (some centres undefined), the figures for the minimum bactericidal concentration (MBC) in assay [1], in assay [2] and in assay [3] were > 10 µg/mL, 2.5 µg/mL (≈ 3.79 µM) and 5 µg/mL (≈ 7.58 µM), respectively. Further, the MIC in assay [1] is < 2.5 µg/mL; in assay [2] it was < 2.5 µg/mL; in assay [3] it was 5 µg/mL (≈ 7.58 µM).
In the case of `C[C@H]1CN=C(N)N1CC1CCCN1C[C@@H](Cc1ccc2ccccc2c1)N1C[C@H](CC2CCCCC2)N(CCc2cc(C(F)(F)F)cc(C(F)(F)F)c2)C1=N` (some centres undefined), the MBC in assay [1] is < 2.5 µg/mL; in assay [2] it was < 2.5 µg/mL; in assay [3] it was 5 µg/mL (≈ 6.49 µM). For the same molecule, the MIC in assay [1] was < 2.5 µg/mL; in assay [2] it was < 2.5 µg/mL; in assay [3], 5 µg/mL (≈ 6.49 µM).
On to `CCCC[C@@H]1CN([C@H](CC2CCCCC2)CN2CCCC2CN2C(N)=NC[C@@H]2C)C(=N)N1CC(C)c1ccc(CC(C)C)cc1` (some centres undefined), for which the MBC in assay [1] was > 10 µg/mL; in assay [2], 2.5 µg/mL (≈ 4.03 µM); in assay [3], > 10 µg/mL. Also, the MIC is < 2.5 µg/mL in assay [1], < 2.5 µg/mL in assay [2] and > 10 µg/mL in assay [3].
As for `CC(C)Cc1ccc(C(C)CN2C(=N)N([C@H](Cc3ccc4ccccc4c3)CN3CCCC3CN3C(N)=NC[C@@H]3Cc3ccccc3)C[C@H]2CC2CCCCC2)cc1` (some centres undefined), the MBC in assay [1] was > 10 µg/mL; in assay [2], 2.5 µg/mL (≈ 3.2 µM); in assay [3] it was > 10 µg/mL. Also, the figures for the minimum inhibitory concentration (MIC) in assay [1], in assay [2] and in assay [3] were < 2.5 µg/mL, < 2.5 µg/mL and > 10 µg/mL, respectively.
Regarding `C[C@H]1CN=C(N)N1CC1CCCN1C[C@H](CC1CCCCC1)N1C[C@H](CC2CCCCC2)N(CCc2cc(C(F)(F)F)cc(C(F)(F)F)c2)C1=N` (some centres undefined), the results for the minimal bactericidal concentration (MBC) in assay [1], in assay [2] and in assay [3] were > 10 µg/mL, < 2.5 µg/mL and > 10 µg/mL, respectively. Moreover, the MIC in assay [1] is < 2.5 µg/mL; in assay [2] it was < 2.5 µg/mL; in assay [3], > 10 µg/mL.
As to `N=C1N(CCc2cc(C(F)(F)F)cc(C(F)(F)F)c2)[C@@H](CC2CCCCC2)CN1[C@@H](CC1CCCCC1)CN1CCCC1CN1C(N)=NC[C@@H]1Cc1ccccc1` (some centres undefined), the MBC in assay [1] is > 10 µg/mL; in assay [2], < 2.5 µg/mL; in assay [3] it was > 10 µg/mL. Further, the MIC in assay [1] was < 2.5 µg/mL; in assay [2] it was < 2.5 µg/mL; in assay [3] it was > 10 µg/mL.
For `N=C1N(CCc2cc(C(F)(F)F)cc(C(F)(F)F)c2)[C@H](CC2CCCCC2)CN1[C@H](Cc1ccc2ccccc2c1)CN1CCCC1CN1C(N)=NC[C@@H]1Cc1ccccc1` (some centres undefined), the MBC in assay [1] was > 10 µg/mL; in assay [2] it was 2.5 µg/mL (≈ 2.96 µM); in assay [3], > 10 µg/mL. Further, the figures for the MIC in assay [1], in assay [2] and in assay [3] were < 2.5 µg/mL, < 2.5 µg/mL and > 10 µg/mL, respectively.
On to `CC(C)Cc1ccc(C(C)CN2C(=N)N([C@H](CC3CCCCC3)CN3CCCC3CN3C(N)=NC[C@@H]3C)C[C@@H]2CC2CCCCC2)cc1` (some centres undefined), for which the MBC is > 10 µg/mL in assay [1], < 2.5 µg/mL in assay [2] and 5 µg/mL (≈ 7.58 µM) in assay [3]. In addition, the values for the minimal inhibitory concentration (MIC) in assay [1], in assay [2] and in assay [3] were < 2.5 µg/mL, < 2.5 µg/mL and 5 µg/mL (≈ 7.58 µM), respectively.
Regarding `CC(C)Cc1ccc(C(C)CN2C(=N)N([C@H](CC3CCCCC3)CN3CCCC3CN3C(N)=NC[C@@H]3Cc3ccccc3)C[C@H]2CC2CCCCC2)cc1` (some centres undefined), the MBC is > 10 µg/mL in assay [1], < 2.5 µg/mL in assay [2] and 5 µg/mL (≈ 6.79 µM) in assay [3]. Also, the MIC in assay [1] was 2.5 µg/mL (≈ 3.4 µM); in assay [2], < 2.5 µg/mL; in assay [3], 5 µg/mL (≈ 6.79 µM).
